Results: patent publication US20260167679A1, “FUSION PROTEIN TARGETING MITOCHONDRIA, METHOD OF MAKING AND USE THEREOF” (UNIVERSITY OF ROCHESTER, priority 2020, published 2026)

What was measured:
Format in all cases: in vivo, Caenorhabditis elegans
C. elegans [1] = assay: Lifespan of mtON-expressing worms
Description: Light treatment began at day 1 of adulthood for all experiments, a, Survival curves of mtON-expressing animals (extrachromosomal array). […] One-way ANOVA with Tukey's test; n=30 animals for day 4 conditions and 40 animals for day 10. […] The dotted arrow represents the molecular mechanisms to be investigated that link Δψm to aged physiology.
A) survival curve with the same conditions as FIG. 15B, but with light intensity (0.005 mW/cm2) below the threshold for mtON activation (0.01 mW/cm2). […] B) Survival curves of mtON-expressing animals versus mtON-expressing animals in a long-lived genetic background containing a constitutively active AMPK mutation.
Strain APW32 expresses mtON as an extrachromosomal array (mtON ext. chr. array), and strain APW273 expresses mtON in single copy through CRISPR/Cas9 genome integration (mtON CRISPR). See methods section for genotype details. Light intensity was varied to maintain temperature as best as possible, and proximal temperature readings directly adjacent to assay plates are reported to show local temperature variability from different incubators and from different light sources. All incubators were set to 20° C.

C. elegans [2] = assay: ETC inhibitor assays, survival of animals
Experimental: Experiments were performed on at least three separate days, using 15-100 young adult animals per plate. Seeded plates were supplemented with rotenone (50 μM final concentration), antimycin A (50 μM final concentration), or oligomycin A (31 μM final concentration) 24 h before animals were transferred onto them. For azide toxicity, animals were placed in M9 buffer with 250 mM azide. Control plates were kept in the dark, and experimental plates were exposed to 1 Hz light (Quantum LED, 0.02 mW/mm^2) for the duration of the experiment. For all toxins, animals that were moving or those that moved in response to a light touch to the head were scored as alive. For rotenone, surviving animals were scored after 5 h. For antimycin A, animals were scored 16 h after exposure. For azide, animals were exposed for 1 h in M9 and allowed to recover for 1 h on a seeded culture plate and then survival was scored. Azide experimental plates were exposed to light (XCite LED, 0.19 mW/mm^2) for the duration of azide treatment and recovery. […]. For oligomycin A, animals were scored 18 h after exposure.
(§1) Experiments were carried out using a hypoxic chamber (Coy Laboratory Products, 5%/95% H2/N2 gas, palladium catalyst) at 26° C. with 50-100 animals per plate. O2 was <0.01%. Hypoxic preconditioning (PC) duration was 4 h, and control animals were incubated at 26° C. in room air for the same time. 1 Hz illumination (Quantum LED, 0.02 mW/mm^2) was carried out during PC period or during the hypoxic period. Hypoxic exposure was for 18.5, 21 h after PC. Twenty-four hours after hypoxia exposure, animals that were moving or those that moved in response to a light touch to the head were scored as alive. Data from days where PC was at least 15% effective for both +ATR and −ATR were used. Animals supplemented with ATR were allowed to lay eggs onto plates with no ATR that were subsequently used for HR experiments to minimize confounding effects of ATR. ATR from the parent animal was sufficient to provide active mtON in progeny as tested by the azide toxin assay described above. […] FCCP dissolved in ethanol was deposited onto seeded NGM plates.

C. elegans [3] = assay: Hypoxia and reoxygenation with hypoxic preconditioning; conditions: +ATR, baseline survival, n=12 independent experiments
Experimental: as §1

## N#CC(C#N)=NNc1ccc(OC(F)(F)F)cc1 [FCCP, carbonyl cyanide p-(trifluoromethoxy)phenylhydrazone, reference compound]
C. elegans [1]; FCCP on its own
  lifespan: no effect on lifespan

## CC1=C(/C=C/C(C)=C/C=C/C(C)=C/C=O)C(C)(C)CCC1 [ATR, all trans-retinal, reference compound]
C. elegans [2]; 50 μM rotenone for 5 hours, +ATR −light (ATR alone)
  survival: protective
C. elegans [2]; azide toxin assay, progeny of ATR-supplemented parents, +ATR −light
  survival: 27.5%
C. elegans [3]
  survival after hypoxia and reoxygenation (baseline): 49.7+/−20.3%
C. elegans [1]; ATR and light in wild-type animals
  lifespan: did not affect lifespan
C. elegans [1]; ATR supplementation alone
  lifespan or physiology: does not affect lifespan or physiology
